Source: ChEMBL document CHEMBL1201862, “PubChem BioAssay data set” (2004)
“And” between values parts separate entries of the source, which are not always exact repeats. Equal entries are not always repeated. The source made the active and inactive calls. Unless noted, the rule behind the calls is not given here.

Assays:
Hexokinase HKDC1 = biological target: T1, Hexokinase HKDC1 (Homo sapiens, UniProt Q2TB90); assay: HKDC1 hexokinase activators, dose response, biochemical, W721R variant (AID 504730); assay type: functional
T1 sequence (Q2TB90 whole entry): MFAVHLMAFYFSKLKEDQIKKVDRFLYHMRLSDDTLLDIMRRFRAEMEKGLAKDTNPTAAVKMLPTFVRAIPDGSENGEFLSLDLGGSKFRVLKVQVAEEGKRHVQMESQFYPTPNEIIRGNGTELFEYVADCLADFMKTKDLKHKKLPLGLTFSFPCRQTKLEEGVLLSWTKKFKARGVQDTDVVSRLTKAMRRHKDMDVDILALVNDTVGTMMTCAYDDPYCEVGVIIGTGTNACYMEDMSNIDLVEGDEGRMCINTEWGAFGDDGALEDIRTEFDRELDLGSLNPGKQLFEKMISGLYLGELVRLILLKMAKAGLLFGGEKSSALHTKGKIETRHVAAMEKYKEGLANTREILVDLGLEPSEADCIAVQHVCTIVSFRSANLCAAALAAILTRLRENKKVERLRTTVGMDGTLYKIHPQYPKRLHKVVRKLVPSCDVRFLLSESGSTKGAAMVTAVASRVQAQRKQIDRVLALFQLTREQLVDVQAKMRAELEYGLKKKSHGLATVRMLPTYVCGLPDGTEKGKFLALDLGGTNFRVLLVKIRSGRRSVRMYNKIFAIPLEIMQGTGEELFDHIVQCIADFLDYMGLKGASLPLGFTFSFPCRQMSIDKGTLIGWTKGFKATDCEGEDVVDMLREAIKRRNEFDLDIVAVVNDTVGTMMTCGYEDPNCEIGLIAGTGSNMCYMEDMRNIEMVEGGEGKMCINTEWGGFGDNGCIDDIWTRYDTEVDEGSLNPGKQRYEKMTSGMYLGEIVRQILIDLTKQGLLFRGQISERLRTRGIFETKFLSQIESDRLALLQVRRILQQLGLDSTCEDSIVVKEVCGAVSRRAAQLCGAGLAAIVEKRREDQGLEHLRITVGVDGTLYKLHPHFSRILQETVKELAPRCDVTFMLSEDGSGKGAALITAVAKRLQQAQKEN

fMet-Leu-Phe receptor = biological target: T2, fMet-Leu-Phe receptor (Homo sapiens, UniProt P21462); assay: FPR ligands, dose response (AID 519); assay type: functional
T2 sequence (P21462 whole entry): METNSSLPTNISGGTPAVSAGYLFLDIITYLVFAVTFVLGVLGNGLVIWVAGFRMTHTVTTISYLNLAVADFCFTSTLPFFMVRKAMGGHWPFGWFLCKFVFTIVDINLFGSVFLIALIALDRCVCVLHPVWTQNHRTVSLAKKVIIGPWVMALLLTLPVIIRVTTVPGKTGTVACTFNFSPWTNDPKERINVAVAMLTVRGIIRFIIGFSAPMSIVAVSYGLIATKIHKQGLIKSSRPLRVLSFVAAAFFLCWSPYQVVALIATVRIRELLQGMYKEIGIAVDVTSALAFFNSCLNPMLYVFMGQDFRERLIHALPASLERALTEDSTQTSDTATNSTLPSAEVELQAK

[1] = biological target: Peroxisome proliferator-activated receptor gamma/Nuclear receptor coactivator 1 (Homo sapiens, UniProt P37231); assay: (§1) TR-FRET dose response biochemical High Throughput Screening assay for agonists of the steroid receptor coactivator 1 (SRC-1) recruitment by the peroxisome proliferator-activated receptor gamma (PPAR gamma): non-selective agonists. [Related pubchem assays (depositor defined):AID1300, AID1808, AID504735, AID631]; assay type: protein assay
[2] = biological target: Peroxisome proliferator-activated receptor gamma/Nuclear receptor coactivator 3 (Homo sapiens, UniProt P37231); assay: as §1, with “3 (SRC-3)” for “1 (SRC-1)”, “assays: 1301 (Confirmation screen.), 1048 (Primary screen.)]” for “assays (depositor defined):AID1300, AID1808, AID504735, AID631]”; assay type: functional
Chain of Peroxisome proliferator-activated receptor gamma/Nuclear receptor coactivator 3 (P37231 whole entry): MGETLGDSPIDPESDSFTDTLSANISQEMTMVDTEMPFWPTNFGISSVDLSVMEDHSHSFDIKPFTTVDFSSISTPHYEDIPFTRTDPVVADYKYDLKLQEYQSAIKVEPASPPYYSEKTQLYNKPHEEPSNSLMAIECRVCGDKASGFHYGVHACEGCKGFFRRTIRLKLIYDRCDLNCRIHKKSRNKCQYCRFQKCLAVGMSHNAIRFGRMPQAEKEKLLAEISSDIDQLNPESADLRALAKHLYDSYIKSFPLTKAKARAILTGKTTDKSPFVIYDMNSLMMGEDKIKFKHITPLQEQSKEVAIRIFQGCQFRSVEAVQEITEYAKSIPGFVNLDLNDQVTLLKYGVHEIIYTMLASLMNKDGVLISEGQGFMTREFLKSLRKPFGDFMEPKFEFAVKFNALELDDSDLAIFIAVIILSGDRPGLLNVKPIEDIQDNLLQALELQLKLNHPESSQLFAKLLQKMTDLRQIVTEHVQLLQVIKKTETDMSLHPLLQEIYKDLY
Chain of Peroxisome proliferator-activated receptor gamma/Nuclear receptor coactivator 3 (Q9Y6Q9 whole entry, further chain): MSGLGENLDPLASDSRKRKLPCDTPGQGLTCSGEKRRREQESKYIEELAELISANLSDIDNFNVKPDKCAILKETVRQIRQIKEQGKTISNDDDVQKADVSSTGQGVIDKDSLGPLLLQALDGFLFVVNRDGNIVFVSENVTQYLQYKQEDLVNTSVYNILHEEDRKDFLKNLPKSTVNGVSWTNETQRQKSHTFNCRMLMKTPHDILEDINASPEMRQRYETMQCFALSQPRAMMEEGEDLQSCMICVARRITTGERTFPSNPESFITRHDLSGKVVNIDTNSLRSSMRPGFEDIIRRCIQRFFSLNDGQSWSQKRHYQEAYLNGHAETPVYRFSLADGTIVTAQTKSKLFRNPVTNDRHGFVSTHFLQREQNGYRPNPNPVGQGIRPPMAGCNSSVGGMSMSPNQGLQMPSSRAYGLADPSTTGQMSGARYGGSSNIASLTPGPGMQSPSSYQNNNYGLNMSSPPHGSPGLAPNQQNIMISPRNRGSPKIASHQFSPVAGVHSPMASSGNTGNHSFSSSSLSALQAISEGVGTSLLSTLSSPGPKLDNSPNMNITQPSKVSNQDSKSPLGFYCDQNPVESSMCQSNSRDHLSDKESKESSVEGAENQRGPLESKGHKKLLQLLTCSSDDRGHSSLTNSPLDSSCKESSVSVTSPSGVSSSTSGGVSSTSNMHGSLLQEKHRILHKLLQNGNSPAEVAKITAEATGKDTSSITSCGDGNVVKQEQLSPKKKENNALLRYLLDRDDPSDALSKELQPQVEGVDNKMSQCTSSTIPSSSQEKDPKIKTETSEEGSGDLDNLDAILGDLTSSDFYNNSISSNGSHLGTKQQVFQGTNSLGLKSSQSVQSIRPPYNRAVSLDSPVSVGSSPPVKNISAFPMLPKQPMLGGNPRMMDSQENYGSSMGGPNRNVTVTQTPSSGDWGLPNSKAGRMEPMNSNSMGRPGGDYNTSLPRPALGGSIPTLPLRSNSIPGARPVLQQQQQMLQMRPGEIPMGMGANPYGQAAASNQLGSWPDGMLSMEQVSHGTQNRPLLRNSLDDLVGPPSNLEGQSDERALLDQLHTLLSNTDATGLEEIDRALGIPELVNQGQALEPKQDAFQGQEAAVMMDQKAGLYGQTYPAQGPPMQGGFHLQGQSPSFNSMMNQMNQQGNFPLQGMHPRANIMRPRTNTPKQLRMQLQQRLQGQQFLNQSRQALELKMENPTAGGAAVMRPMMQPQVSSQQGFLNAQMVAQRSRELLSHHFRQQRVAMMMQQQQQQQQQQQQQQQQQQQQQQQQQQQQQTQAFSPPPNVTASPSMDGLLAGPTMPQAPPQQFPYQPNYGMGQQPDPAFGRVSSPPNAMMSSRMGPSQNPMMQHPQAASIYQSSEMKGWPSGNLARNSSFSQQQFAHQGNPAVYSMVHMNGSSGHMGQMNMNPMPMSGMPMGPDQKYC

[3] = biological target: Peroxisome proliferator-activated receptor gamma/Nuclear receptor coactivator 2 (Homo sapiens, UniProt P37231); assay: TR-FRET dose response biochemical High Throughput Screening assay for agonists of the steroid receptor coactivator 2 (SRC-2) recruitment by the peroxisome proliferator-activated receptor gamma (PPAR gamma): non-selective agonists. [Related pubchem assays: 1297, 1032 ]; assay type: functional
Chain of Peroxisome proliferator-activated receptor gamma/Nuclear receptor coactivator 2 (P37231 whole entry): as the sequence (P37231 whole entry) above
Chain of Peroxisome proliferator-activated receptor gamma/Nuclear receptor coactivator 2 (Q15596 whole entry, further chain): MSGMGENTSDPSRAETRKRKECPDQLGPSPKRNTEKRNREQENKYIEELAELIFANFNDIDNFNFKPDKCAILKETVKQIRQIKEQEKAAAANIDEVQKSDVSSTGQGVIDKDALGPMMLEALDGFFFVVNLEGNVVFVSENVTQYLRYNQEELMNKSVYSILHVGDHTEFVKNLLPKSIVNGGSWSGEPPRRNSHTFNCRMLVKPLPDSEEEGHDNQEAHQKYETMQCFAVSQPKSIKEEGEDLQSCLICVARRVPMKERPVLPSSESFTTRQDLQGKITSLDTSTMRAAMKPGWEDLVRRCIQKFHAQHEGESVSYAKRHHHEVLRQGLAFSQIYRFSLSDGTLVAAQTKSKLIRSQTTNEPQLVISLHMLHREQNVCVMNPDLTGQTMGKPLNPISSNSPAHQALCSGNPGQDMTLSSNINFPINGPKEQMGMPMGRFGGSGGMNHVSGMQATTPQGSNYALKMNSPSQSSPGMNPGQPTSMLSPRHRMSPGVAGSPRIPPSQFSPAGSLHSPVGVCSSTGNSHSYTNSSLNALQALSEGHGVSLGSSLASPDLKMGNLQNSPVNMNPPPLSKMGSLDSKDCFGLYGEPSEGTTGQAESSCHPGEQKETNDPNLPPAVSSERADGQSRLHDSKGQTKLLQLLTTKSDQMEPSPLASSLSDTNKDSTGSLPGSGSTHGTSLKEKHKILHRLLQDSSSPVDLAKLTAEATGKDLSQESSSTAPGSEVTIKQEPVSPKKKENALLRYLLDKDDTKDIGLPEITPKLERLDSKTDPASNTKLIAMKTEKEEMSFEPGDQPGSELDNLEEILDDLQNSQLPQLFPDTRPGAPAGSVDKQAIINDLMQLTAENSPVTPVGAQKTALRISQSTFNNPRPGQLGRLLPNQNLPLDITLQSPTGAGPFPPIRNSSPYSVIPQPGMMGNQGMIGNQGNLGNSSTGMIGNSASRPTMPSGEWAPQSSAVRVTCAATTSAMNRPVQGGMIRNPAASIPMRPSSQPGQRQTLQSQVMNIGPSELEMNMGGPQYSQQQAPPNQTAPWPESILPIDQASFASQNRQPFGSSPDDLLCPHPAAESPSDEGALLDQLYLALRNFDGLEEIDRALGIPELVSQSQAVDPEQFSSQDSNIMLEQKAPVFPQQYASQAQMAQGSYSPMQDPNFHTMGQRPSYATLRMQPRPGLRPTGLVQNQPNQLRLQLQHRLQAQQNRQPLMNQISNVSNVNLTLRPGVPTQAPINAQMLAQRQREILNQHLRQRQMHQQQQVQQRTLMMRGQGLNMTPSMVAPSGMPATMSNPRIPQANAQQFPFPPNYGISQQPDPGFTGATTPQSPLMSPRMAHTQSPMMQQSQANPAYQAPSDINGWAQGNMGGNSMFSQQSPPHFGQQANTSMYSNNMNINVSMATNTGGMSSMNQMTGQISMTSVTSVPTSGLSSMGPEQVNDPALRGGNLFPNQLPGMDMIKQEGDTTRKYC

Cytochrome P450 3A4 = Cytochrome P450 3A4 (Homo sapiens, UniProt P08684);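 also: CYP3A4 tested as one member of a cytochrome P450 panel screen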
Chain of Cytochrome P450 3A4 (P08684 whole entry, the tested form may be a part): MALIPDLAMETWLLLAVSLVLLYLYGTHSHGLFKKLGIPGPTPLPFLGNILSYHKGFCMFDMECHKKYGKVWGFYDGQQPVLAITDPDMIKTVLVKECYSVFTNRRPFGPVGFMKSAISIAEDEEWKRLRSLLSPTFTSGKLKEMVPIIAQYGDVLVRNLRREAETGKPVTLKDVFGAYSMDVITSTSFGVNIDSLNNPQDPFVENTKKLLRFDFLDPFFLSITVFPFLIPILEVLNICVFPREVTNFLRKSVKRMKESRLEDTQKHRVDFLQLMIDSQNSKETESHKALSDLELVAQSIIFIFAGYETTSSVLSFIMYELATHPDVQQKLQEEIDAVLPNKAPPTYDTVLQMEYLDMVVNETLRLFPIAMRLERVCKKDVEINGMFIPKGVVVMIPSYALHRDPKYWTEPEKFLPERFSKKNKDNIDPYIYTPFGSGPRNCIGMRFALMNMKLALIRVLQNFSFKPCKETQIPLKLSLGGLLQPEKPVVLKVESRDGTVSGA

[4] = biological target: T3, E3 ubiquitin-protein ligase XIAP (Homo sapiens, UniProt P98170); assay: SAR analysis of Antagonists of XIAP-Bir3 domain of IAP-family anti-apoptotic proteins. [Related pubchem assays (depositor defined):AID1018, AID1449, AID1513, AID1514, AID1638]
T3 sequence (P98170 whole entry, the tested form may be a part): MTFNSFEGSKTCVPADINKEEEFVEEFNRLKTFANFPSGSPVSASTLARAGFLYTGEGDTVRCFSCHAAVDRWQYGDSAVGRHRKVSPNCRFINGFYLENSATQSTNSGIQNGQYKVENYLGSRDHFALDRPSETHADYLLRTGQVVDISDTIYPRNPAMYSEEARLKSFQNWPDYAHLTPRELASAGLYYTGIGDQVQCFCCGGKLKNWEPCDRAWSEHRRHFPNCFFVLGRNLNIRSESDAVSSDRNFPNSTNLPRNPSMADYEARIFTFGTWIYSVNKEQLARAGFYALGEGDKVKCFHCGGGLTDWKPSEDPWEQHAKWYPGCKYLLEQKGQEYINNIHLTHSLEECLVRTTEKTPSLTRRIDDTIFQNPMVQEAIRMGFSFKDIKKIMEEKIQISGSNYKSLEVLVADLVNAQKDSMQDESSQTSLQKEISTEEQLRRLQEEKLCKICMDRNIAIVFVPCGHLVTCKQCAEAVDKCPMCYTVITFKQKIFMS

[5] = biological target: T3, E3 ubiquitin-protein ligase XIAP; assay: SAR analysis of Antagonists of IAP-family anti-apoptotic proteins. [Related pubchem assays (depositor defined):AID1018, AID1449, AID1513, AID1514, AID1638]
T-cell = assay: inhibitors of CD8+ T cell–vesicle binding, dose response, mouse 2C CD8+ T cells, flow cytometry (AID 485284); assay type: functional
[6] = biological target: T4, Short transient receptor potential channel 4 (Mus musculus, UniProt Q9QUQ5); assay: TRPC4 positive allosteric modulators, dose response, cell-based, HEK293 TRPC4/mu-opioid, Fluo-4 calcium, EC20 DAMGO (AID 434941); assay type: functional
T4 sequence (Q9QUQ5 whole entry): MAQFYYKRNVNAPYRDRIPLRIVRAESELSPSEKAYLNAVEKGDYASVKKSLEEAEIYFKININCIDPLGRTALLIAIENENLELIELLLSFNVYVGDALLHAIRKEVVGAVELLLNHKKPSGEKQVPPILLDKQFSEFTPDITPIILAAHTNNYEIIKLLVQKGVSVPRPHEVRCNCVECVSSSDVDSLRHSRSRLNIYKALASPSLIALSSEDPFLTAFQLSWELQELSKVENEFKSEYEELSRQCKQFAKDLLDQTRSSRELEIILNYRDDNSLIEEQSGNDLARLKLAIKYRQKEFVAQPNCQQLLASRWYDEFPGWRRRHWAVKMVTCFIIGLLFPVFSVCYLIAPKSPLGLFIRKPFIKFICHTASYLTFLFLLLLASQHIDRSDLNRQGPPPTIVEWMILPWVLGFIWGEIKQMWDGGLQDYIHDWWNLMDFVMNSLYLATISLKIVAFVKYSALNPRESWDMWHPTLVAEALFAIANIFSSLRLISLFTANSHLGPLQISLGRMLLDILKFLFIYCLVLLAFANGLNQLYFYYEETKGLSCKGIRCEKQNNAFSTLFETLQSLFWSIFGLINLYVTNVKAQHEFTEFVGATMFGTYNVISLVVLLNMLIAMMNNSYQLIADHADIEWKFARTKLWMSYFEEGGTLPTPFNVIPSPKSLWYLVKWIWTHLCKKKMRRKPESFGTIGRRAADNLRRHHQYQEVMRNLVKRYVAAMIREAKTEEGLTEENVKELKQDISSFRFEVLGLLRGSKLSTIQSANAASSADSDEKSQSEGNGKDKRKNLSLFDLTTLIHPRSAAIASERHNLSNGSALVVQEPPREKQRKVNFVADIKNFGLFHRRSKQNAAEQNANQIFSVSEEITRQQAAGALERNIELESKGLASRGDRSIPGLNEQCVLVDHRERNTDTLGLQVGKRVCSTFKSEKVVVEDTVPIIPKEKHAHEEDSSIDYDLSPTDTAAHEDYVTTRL

`COCc1cc(C2C(C(=O)c3ccco3)=C(O)C(=O)N2CCOCCO)ccc1O` (stereo not given) was tested, and the EC50 (Hexokinase HKDC1) was > 80 µM (inactive) and the Ki (fMet-Leu-Phe receptor) was 29.7 µM (inactive).
For `CCOC(=O)CSc1cc(=O)n(C)c2cc(Cl)ccc12`, the EC50 [1] was > 79.4 µM (inactive), the EC50 [2] was > 79.4 µM (not active) and the EC50 [3] was > 79.4 µM (not active). For the same compound, the AC50 (Cytochrome P450 3A4) was 22.4 µM (inconclusive).
For `CC[C@H](NC(=O)[C@H](C)NC)C(=O)N1CCC[C@H]1C(=O)NC1CCCc2ccccc21` (stereo not given in full), the IC50 [4] was 530 nM (active) and 980 nM (active) and the IC50 [5] was 9.7 µM (active) and 13.7 µM (active).
In the case of `CCCCn1nc(C(=O)N2CCN(S(=O)(=O)c3ccccc3)CC2)c2ccccc2c1=O`, the EC50 (T-cell) is reported as 10.3 µM (active).
With `O=C(Nc1ccccc1)C1=C[C@H](C2CCCCC2)C[C@H](OCc2ccc(CO)cc2)O1` the EC50 [6] was 2.99 µM (active).
